Reference: BindingDB's records for doi:10.1016/j.ejmech.2013.04.003 (Seoul National University, 2013)

Legend:
[1] = target: T1, Transient receptor potential cation channel subfamily V member 1 (Homo sapiens, UniProt Q8NER1); assay: Antagonist activity at human TRPV1 expressed in CHOK1 cells assessed as inhibition of capsaicin-induced activity by FLIPR assay
[2] = target: T1, Transient receptor potential cation channel subfamily V member 1; assay: Antagonist activity at human TRPV1 expressed in CHOK1 cells assessed as inhibition of pH 6 to 6.3-induced activity by FLIPR assay

T1 sequence (Q8NER1 whole entry): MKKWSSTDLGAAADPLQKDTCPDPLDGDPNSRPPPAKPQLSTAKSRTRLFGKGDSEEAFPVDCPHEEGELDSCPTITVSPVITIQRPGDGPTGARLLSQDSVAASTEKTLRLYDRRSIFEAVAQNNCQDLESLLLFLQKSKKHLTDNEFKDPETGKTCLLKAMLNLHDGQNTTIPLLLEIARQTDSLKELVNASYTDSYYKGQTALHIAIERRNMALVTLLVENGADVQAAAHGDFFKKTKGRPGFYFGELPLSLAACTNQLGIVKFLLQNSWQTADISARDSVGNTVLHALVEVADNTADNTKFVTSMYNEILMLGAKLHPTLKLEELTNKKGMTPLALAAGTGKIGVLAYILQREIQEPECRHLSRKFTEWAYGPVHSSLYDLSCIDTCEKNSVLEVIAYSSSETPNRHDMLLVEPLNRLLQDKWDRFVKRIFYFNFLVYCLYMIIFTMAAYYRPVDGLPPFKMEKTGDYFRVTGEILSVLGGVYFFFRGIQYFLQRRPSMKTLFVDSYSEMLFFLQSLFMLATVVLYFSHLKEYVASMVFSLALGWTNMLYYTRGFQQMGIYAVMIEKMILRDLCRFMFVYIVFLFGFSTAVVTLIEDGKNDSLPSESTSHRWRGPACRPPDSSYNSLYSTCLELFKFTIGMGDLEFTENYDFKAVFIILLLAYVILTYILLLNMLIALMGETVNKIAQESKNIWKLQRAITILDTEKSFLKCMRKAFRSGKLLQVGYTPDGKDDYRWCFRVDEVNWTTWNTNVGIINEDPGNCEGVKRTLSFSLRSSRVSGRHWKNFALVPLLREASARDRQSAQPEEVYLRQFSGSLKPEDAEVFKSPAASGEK

Ki [1]: 1.5 nM
IC50 [2]: 161 nM
Compound: CC(C(=O)NCc1ccc(C(F)(F)F)nc1OCCCOc1ccccc1)c1ccc(NS(C)(=O)=O)c(F)c1 (configuration not stated)
